From patent publication US6833456B2, “Indolyl-urea derivatives of thienopyridines useful as antiangiogenic agents, and methods for their use” (Agouron Pharmaceuticals, Inc., priority 2002, dated 2004)
pIC50, pKi: −log10 of the molar value. Values joined by “and” are separate entries in the source; they are usually repeats but may differ in a detail not shown here. Equal entries are not always repeated.

Columns and labels:
[1] = system: human umbilical vein endothelial cells (HUVEC); assay: HUVEC+VEGF proliferation assay; assay type: cell-based; conditions: Homo sapiens, HUVEC, 72 h, VEGF 6 ng/mL, MTT
Protocol: This assay determines the ability of a test compound to inhibit the growth factor-stimulated proliferation of human umbilical vein endothelial cells (“HUVEC”). HUVEC cells (passage 3-4, Clonetics, Corp.) were thawed into EGM2 culture medium (Clonetics Corp) in T75 flasks. Fresh EGM2 medium was added to the flasks 24 hours later. Four or five days later, cells were exposed to another culture medium (F12K medium supplemented with 10% fetal bovine serum (FBS), 60 μg/mL endothelial cell growth supplement (ECGS), and 0.1 mg/mL heparin). Exponentially-growing HUVEC cells were used in experiments thereafter. Ten to twelve thousand HUVEC cells were plated in 96-well dishes in 100 μl of rich, culture medium (described above). The cells were allowed to attach for 24 hours in this medium. The medium was then removed by aspiration and 105 μl of starvation media (F12K+1% FBS) was added to each well. After 24 hours, 15 μl of test agent dissolved in 1% DMSO in starvation medium or this vehicle alone was added into each treatment well; the final DMSO concentration was 0.1%. One hour later, 30 μl of VEGF (30 ng/mL) in starvation media was added to all wells except those containing untreated controls; the final VEGF concentration was 6 ng/mL. Cellular proliferation was quantified 72 hours later by MTT dye reduction, at which time cells were exposed for 4 hours MTT (Promega Corp.). Dye reduction was stopped by addition of a stop solution (Promega Corp.) and absorbance at 595 nm was determined on a 96-well spectrophotometer plate reader.

PDGFRβ = biological target: T1, PDGFRβ (Homo sapiens, UniProt P09619); assay: PAE-PDGFRβ phosphorylation in PAE-PDGFRB cells assay; assay type: cell-based; conditions: PAE cells overexpressing human PDGFRβ, PDGF-BB stimulated; read-out: PAE PDGFR autophos IC50
T1 construct: expressed in transfected cells; host or cells: porcine aorta endothelial (PAE) cells
T1 sequence (P09619 33-1106): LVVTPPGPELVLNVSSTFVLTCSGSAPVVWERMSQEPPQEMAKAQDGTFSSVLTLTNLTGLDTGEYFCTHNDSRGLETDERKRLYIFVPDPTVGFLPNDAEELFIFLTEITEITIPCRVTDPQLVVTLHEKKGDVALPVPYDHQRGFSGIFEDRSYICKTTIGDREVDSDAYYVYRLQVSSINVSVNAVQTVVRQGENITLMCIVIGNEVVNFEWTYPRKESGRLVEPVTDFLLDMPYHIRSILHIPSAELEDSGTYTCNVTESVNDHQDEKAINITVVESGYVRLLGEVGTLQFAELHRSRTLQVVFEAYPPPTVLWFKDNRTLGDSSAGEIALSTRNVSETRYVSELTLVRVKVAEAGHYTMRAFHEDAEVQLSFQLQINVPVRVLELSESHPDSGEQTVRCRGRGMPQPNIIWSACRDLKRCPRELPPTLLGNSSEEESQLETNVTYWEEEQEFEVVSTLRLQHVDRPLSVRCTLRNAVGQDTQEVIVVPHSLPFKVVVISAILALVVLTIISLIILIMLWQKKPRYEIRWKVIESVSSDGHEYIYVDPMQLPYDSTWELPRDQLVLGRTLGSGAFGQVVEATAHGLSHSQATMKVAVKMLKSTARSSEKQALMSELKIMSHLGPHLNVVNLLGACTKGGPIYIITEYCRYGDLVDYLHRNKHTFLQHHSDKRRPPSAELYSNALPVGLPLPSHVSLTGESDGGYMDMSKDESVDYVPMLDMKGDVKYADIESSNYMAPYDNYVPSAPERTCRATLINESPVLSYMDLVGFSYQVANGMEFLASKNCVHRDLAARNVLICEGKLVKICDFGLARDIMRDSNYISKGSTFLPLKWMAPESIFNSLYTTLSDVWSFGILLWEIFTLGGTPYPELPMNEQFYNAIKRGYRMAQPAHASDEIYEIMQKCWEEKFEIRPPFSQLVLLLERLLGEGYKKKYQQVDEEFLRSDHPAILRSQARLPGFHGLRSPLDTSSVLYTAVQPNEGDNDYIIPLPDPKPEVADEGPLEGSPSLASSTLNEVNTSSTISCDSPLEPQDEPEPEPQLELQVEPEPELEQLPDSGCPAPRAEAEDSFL
Protocol: This assay determines the ability of a test compound to inhibit the autophosphorylation of PDGFRβ in porcine aorta endothelial (PAE)-PDGFRβ cells. PAE cells that overexpress human PDGFRβ were used in this assay. The cells were cultured in Ham's F12 media supplemented with 10% fetal bovine serum (FBS) and 400 ug/ml G418. Twenty thousands cells were seeded in each well of a 96-well plate in 50 μL of growth media and allowed to attach for 6 hours at 37° C. Cells were then exposed to the starvation media (Ham's F12 media supplemented with 0.1% FBS) for 16 hours. After the starvation period was over, 10 μL of test agent in 5% DMSO in starvation media were added to the test wells and 10 μL of the vehicle (5% DMSO in starvation media) were added into the control wells. The final DMSO concentration in each well was 0.5%. Plates were incubated at 37° C. for 1 hour and the cells were then stimulated with 1 μg/mL PDGF-BB (R & D System) in the presence of 2 mM Na3VO4 for 8 minutes. The cells were washed once with 1 mm Na3VO4 in HBSS and lysed by adding 50 μL per well of lysis buffer. One hundred μL of dilution buffer were then added to each well and the diluted cell lysate was transferred to a 96-well goat ant-rabbit coated plate (Pierce), which was pre-coated with Rabbit anti Human PDGFRβ antibody (Santa Cruz). The plates were incubated at room temperature for 2 hours and washed seven times with 1% Tween 20 in PBS. HRP-PY20 (Santa Cruz) was diluted and added to the plate for a 30-minute incubation. Plates were then washed again and TMB peroxidase substrate (Kirkegaard & Perry) was added for a 10-minute incubation. One hundred μL of 0.09 N H2SO4 was added into each well of the 96-well plate to stop the reaction. Phosphorylation status was assessed by spectrophotometer reading at 450 nm. IC50 values were calculated by curve fitting using a four-parameter analysis.

[2] = biological target: T2, unphosphorylated VEGF-R2Δ50 (FLVK) (Homo sapiens, UniProt P35968, DEL940-989/E990V); assay: VEGF-R2 coupled spectrophotometric assay, unphosphorylated construct (FLVK); assay type: biochemical; conditions: for inhibition at 0.05 µM: percent inhibition at 50 nM
T2 construct: VEGF-R2Δ50 contains residues 806-939 and 990-1171; made in house; host or cells: baculovirus/insect cell system
T2 sequence (P35968 with tags, fused parts or gaps DEL940-989/E990V limits assumed): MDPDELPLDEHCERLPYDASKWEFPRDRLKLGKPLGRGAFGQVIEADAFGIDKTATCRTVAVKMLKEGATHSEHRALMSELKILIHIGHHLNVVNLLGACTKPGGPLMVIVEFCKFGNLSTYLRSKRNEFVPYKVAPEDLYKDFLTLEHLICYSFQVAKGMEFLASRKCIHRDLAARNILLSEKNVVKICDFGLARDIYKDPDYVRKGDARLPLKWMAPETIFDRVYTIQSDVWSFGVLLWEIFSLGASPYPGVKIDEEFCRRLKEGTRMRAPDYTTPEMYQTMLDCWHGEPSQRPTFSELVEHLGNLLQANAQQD
Outline: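 Human VEGF-R2Δ50 cytosolic kinase (residues 806-939/990-1171, E990V), baculovirus-expressed, unphosphorylated form. PK/LDH-coupled NADH oxidation at 340 nm with 20 mM poly(E4Y1), 3 mM ATP, 60 mM MgCl2, 2 mM MnCl2, 200 mM HEPES pH 7.5, 5-40 nM enzyme; Ki fitted by Morrison equation.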

KDR (VEGFR2) = biological target: T3, KDR (VEGFR2) (Homo sapiens, UniProt P35968); assay: KDR (VEGFR2) phosphorylation in PAE-KDR cells assay; assay type: cell-based; conditions: PAE cells overexpressing human KDR, VEGF stimulated; read-out: PAE KDR autophos IC50
T3 construct: expressed in transfected cells; host or cells: porcine aorta endothelial (PAE) cells
T3 sequence (P35968 20-1356): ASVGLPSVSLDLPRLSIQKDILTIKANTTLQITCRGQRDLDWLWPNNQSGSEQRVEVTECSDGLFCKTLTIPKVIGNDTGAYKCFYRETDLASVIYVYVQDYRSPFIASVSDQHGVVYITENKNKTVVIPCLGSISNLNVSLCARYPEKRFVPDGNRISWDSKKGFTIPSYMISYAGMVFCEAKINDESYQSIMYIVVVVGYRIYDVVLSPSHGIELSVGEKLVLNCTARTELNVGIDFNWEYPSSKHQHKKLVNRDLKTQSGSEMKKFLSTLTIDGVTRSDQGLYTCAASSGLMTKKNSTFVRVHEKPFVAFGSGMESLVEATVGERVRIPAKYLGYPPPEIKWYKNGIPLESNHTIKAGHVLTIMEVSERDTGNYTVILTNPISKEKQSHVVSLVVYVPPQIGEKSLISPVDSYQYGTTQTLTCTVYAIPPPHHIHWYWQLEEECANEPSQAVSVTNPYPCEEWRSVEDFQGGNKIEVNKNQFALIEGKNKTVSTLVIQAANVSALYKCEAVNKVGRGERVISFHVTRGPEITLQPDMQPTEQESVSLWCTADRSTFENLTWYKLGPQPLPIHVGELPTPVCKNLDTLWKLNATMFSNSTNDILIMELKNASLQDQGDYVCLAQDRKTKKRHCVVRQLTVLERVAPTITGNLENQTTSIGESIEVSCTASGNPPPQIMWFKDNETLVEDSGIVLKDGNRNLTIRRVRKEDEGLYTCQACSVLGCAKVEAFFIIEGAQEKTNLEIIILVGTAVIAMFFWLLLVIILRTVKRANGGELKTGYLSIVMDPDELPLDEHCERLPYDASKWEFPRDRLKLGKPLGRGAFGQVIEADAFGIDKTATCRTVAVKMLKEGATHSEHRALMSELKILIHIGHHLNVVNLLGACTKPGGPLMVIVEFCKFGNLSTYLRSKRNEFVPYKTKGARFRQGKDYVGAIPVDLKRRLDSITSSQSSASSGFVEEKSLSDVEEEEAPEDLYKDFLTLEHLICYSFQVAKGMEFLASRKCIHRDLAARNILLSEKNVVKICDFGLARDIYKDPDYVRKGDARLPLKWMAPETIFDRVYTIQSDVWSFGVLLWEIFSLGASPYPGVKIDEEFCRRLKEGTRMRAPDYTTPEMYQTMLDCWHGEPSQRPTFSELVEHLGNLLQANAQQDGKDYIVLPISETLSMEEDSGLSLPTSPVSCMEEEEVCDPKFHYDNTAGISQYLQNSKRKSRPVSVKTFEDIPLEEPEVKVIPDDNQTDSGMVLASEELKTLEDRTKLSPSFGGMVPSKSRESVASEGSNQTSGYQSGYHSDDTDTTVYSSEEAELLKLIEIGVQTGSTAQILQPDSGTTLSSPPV
Protocol: This assay determines the ability of a test compound to inhibit the autophosphorylation of KDR in porcine aorta endothelial (PAE)-KDR cells. PAE cells that overexpress human KDR were used in this assay. The cells were cultured in Ham's F12 media supplemented with 10% fetal bovine serum (FBS) and 400 ug/mL G418. Thirty thousands cells were seeded into each well of a 96-well plate in 75 μL of growth media and allowed to attach for 6 hours at 37° C. Cells were then exposed to the starvation media (Ham's F12 media supplemented with 0.1% FBS) for 16 hours. After the starvation period was over, 10 μL of test agent in 5% DMSO in starvation media were added to the test wells and 10 μL of the vehicle (5% DMSO in starvation media) were added into the control wells. The final DMSO concentration in each well was 0.5%. Plates were incubated at 37° C. for 1 hour and the cells were then stimulated with 500 ng/ml VEGF (commercially available from R & D System) in the presence of 2 mM Na3VO4 for 8 minutes. The cells were washed once with 1 mm Na3VO4 in HBSS and lysed by adding 50 μL per well of lysis buffer. One hundred μL of dilution buffer were then added to each well and the diluted cell lysate was transferred to a 96-well goat ant-rabbit coated plate (commercially available from Pierce) which was pre-coated with Rabbit anti Human Anti-flk-1 C-20 antibody (commercially available from Santa Cruz). The plates were incubated at room temperature for 2 hours and washed seven times with 1% Tween 20 in PBS. HRP-PY20 (commercially available from Santa Cruz) was diluted and added to the plate for a 30-minute incubation. Plates were then washed again and TMB peroxidase substrate (commercially available from Kirkegaard & Perry) was added for a 10-minute incubation. One hundred μL of 0.09 N H2SO4 was added to each well of the 96-well plates to stop the reaction. Phosphorylation status was assessed by spectrophotometer reading at 450 nm. IC50 values were calculated by curve fitting using a four-parameter analysis.

| SMILES | pIC50 (PDGFRβ) | pKi [2] | inhibition at 0.05 µM [2] | pIC50 (KDR (VEGFR2)) | pIC50 [1] |
| --- | --- | --- | --- | --- | --- |
| CNC(=O)n1c(C)c(Cl)c2c(F)c(Oc3ccnc4cc(C(=O)N5CC[C@H](OC)C5)sc34)ccc21 [Example 6b, 3-Chloro-4-fluoro-5-[2-(3S-methoxy-pyrrolidine-1-carbonyl)-thieno[3,2-b]pyridin-7-yloxy]-2-methyl-indole-1-carboxylic acid methylamide] | 7.67 | 9.19 | 99% | 9.02 | 8.84 |
| CNC(=O)n1c(C)cc2cc(Oc3ccnc4cc(C(=O)N5C[C@H](OC)[C@@H](OC)C5)sc34)ccc21 [Example 8b, 5-[(2-{[(3S,4S)-3,4-Dimethoxypyrrolidin-1-yl]carbonyl}thieno[3,2-b]pyridin-7-yl)oxy]-2-dimethyl-1H-indole-1-carboxylic acid methylamide] |  | 9.69 | 97% | 9.62 |  |
| CO[C@H]1CCN(C(=O)c2cc3nccc(Oc4ccc5c(c4F)c(Cl)c(C)n5C(=O)NC4CC4)c3s2)C1 [Example 6c, 3-Chloro-4-fluoro-5-[2-(3S-methoxy-pyrrolidine-1-carbonyl)-thieno[3,2-b]pyridin-7-yloxy]-2-methyl-indole-1-carboxylic acid cyclopropyl-amide] | 7.49 | 9.16 | 97% | 8.90 | 9.00 |
| CNC(=O)n1c(C)cc2cc(Nc3ccnc4cc(C(=O)N5C[C@H](O)C[C@H]5C(C)(C)O)sc34)ccc21 [Example 3d, 5-{2-[(2S,4R)-4-Hydroxy-2-(1-hydroxy-1-methyl-ethyl)-pyrrolidine-1-carbonyl]-thieno[3,2-b]pyridin-7-ylamino}-2-methyl-indole-1-carboxylic acid methylamide] | < 6.00 | 8.95 | 60% | 8.57 and 8.16 | 7.21 |
| Cc1cc2c(F)c(Oc3ccnc4cc(C(=O)N5CCC[C@H]5CO)sc34)ccc2n1C(=O)NC1CC1 [Example 5d, 4-Fluoro-5-[2-(2S-hydroxymethyl-pyrrolidine-1-carbonyl)-thieno[3,2-b]pyridin-7-yloxy]-2-methyl-indole-1-carboxylic acid cyclopropylamide] | 7.67 | 9.49 | 96% | 9.28 and 9.36 and 9.56 | 9.46 |
| C#CCNC(=O)n1c(C)cc2c(F)c(Oc3ccnc4cc(C(=O)N5CC[C@@H](O)C5)sc34)ccc21 [Example 5p, 4-Fluoro-5-[2-((R)-3-hydroxy-pyrrolidine-1-carbonyl)-thieno[3,2-b]pyridin-7-yloxy]-2-methyl-indole-1-carboxylic acid prop-2-ynylamide] | 8.34 | 10.08 | 100% | 9.46 |  |
| C#CCNC(=O)n1c(C)cc2cc(Nc3ccnc4cc(C(=O)N5CCC[C@@H]5COC)sc34)ccc21 [Example 7d, 5-[2-(2R-Methoxymethyl-pyrrolidine-1-carbonyl)-thieno[3,2-b]pyridin-7-ylamino]-2-methyl-indole-1-carboxylic acid prop-2-ynylamide] | 7.21 | 9.30 | 96% | 9.59 |  |
| CNC(=O)n1c(C)cc2c(F)c(Oc3ccnc4cc(-c5nc(C(C)(C)O)cs5)sc34)ccc21 [Example 3k, 4-Fluoro-5-{2-[4-(1-hydroxy-1-methyl-ethyl)-thiazol-2-yl]-thieno[3,2-b]pyridin-7-yloxy}-2-methyl-indole-1-carboxylic acid methylamide] | 7.74 | 10.15 | 100% | 9.52 |  |

The next lines start with results.

| pIC50 (PDGFRβ) | pKi [2] | inhibition at 0.05 µM [2] | pIC50 (KDR (VEGFR2)) | SMILES | pIC50 [1] |
| --- | --- | --- | --- | --- | --- |
| 7.22 | 9.31 | 97% | 9.17 | CO[C@H]1CCN(C(=O)c2cc3nccc(Oc4ccc5c(c4)cc(C)n5C(=O)NCCCO)c3s2)C1 [Example 9b, 5-[2-(3S-Methoxy-pyrrolidine-1-carbonyl)-thieno[3,2-b]pyridin-7-yloxy]-2-methyl-indole-1-carboxylic acid (3-hydroxy-propyl)-amide] | 9.48 |
| 8.00 | 10.02 | 100% | 9.75 | CNC(=O)n1c(C)cc2c(F)c(Oc3ccnc4cc(C(=O)N5CC[C@H](OC)C5)sc34)ccc21 [Example 5f, 4-Fluoro-5-[2-(3S-methoxy-pyrrolidine-1-carbonyl)-thieno[3,2-b]pyridin-7-yloxy]-2-methyl-indole-1-carboxylic acid methylamide] | 9.94 |
|  | 9.32 | 98% | 9.59 | C#CCNC(=O)n1c(C)cc2cc(Oc3ccnc4cc(C(=O)N5C[C@H](OC)[C@@H](OC)C5)sc34)ccc21 [Example 4q, 5-[2-(3S,4S-Dimethoxy-pyrrolidine-1-carbonyl)-thieno[3,2-b]pyridin-7-yloxy]-2-methyl-indole-1-carboxylic acid prop-2-ynylamide] | 9.57 |
| 7.25 | 8.49 | 81% | 8.84 and 8.96 | CO[C@H]1CCN(C(=O)c2cc3nccc(Oc4ccc5c(c4)cc(C)n5C(=O)NCCO)c3s2)C1 [Example 9c, 5-[2-(3S-Methoxy-pyrrolidine-1-carbonyl)-thieno[3,2-b]pyridin-7-yloxy]-2-methyl-indole-1-carboxylic acid (2-hydroxy-ethyl)-amide] |  |
| 7.59 | 9.98 | 99% | 9.62 | CCNC(=O)n1c(C)cc2cc(Oc3ccnc4cc(C(=O)N5CC[C@H](OC)C5)sc34)ccc21 [Example 9e, 5-[2-(3S-Methoxy-pyrrolidine-1-carbonyl)-thieno[3,2-b]pyridin-7-yloxy]-2-methyl-indole-1-carboxylic acid ethylamide] |  |
